The results in this text go back to patent publication US20240317791A1 (priority 2021, published 2024).

Common to all, as to type: cell-based
Assay [1] deals with Candida auris. In words: MIC determination against clinical isolates of Candida auris (CLSI M27, 4th edition). To be noted: Candidozyma auris. The text has this: (§1) MIC: Minimum Inhibitory Concentration (MIC) is defined as the lowest concentration of an antimicrobial ingredient that is bacteriostatic.
(§2) Testing has been performed in triplicates for each isolate.

For assay [2], the system named is Mucor circinelloides. Description: MIC determination against ATCC and clinical isolates of the order Mucorales (CLSI M27, 4th edition).
Excerpt: as §1, §2

For assay [3], the system named is Rhizopus microsporus. Description: MIC determination against clinical isolates of the order Mucorales (CLSI M27, 4th edition). To be noted: strain 3435, clinical strain.
Excerpt: as §1, §2

Assay [4] concerns Rhizopus oryzae. The description is as above. Particulars: Rhizopus arrhizus, strain 2086, clinical strain.
Excerpt: as §1, §2

The mark [5] stands for this setting: strain I.2 (No 2), clade I/India, read-out: MIC values.
Setting [6] is: strain I.3 (No 3), clade I/India, read-out: MIC values.
Where [7] appears, read: strain I.4 (No 4), clade I/India, read-out: MIC values.
Where [8] appears, read: strain II.1 (No 5), clade II/Japan, read-out: MIC values.
Setting [9] is: strain II.2 (No 1), clade II/India, read-out: MIC values.
Setting [10] is: strain III.7 (No 12), clade III/Switzerland, read-out: MIC values.
Where [11] appears, read: strain III.8 (No 13), clade III/Israel, read-out: MIC values.
Where [12] appears, read: strain III.9 (No 14), clade III/Israel, read-out: MIC values.
Where [13] appears, read: strain IV.1 (No 15), clade IV/Colombia, read-out: MIC values.
Where [14] appears, read: strain IV.10 (No 7), clade IV/Israel, read-out: MIC values.
Setting [15] is: strain IV.11 (No 8), clade IV/Israel, read-out: MIC values.
Setting [16] is: strain IV.12 (No 9), clade IV/Israel, read-out: MIC values.
[17] abbreviates: strain IV.13 (No 10), clade IV/Israel, read-out: MIC values.
[18] abbreviates: strain IV.14 (No 11), clade IV/Israel, read-out: MIC values.
Setting [19] is: strain IV.2 (No 16), clade IV/Colombia, read-out: MIC values.
The mark [20] stands for this setting: strain IV.3 (No 17), clade IV/Colombia, read-out: MIC values.
Where [21] appears, read: strain IV.4 (No 18), clade IV/Colombia, read-out: MIC values.
Setting [22] is: strain IV.5 (No 19), clade IV/Colombia, read-out: MIC values.
Setting [23] is: strain IV.6 (No 20), clade IV/Colombia, read-out: MIC values.
The mark [24] stands for this setting: strain IV.7 (No 21), clade IV/Colombia, read-out: MIC values.
Setting [25] is: strain IV.8 (No 22), clade IV/Colombia, read-out: MIC values.
Setting [26] is: strain IV.9 (No 6), clade IV/Israel, read-out: MIC values.

Values after ≈ are worked out from the molar mass of the structure shown. Where two headings read alike, the source gives them in different places. Numbered stars: 1 amine (or outer) side, 2 acyl side, 3 side chain; on linkers, the order of the positions; unused ones are H or OH. Bridge positions count the residues as written; N and C are the ends. Square brackets hold non-standard residues; d marks the D form. Peptide text beside a SMILES is read from it. * marks the point of attachment. hTyr(3S-OH,4S-OH,3'-OSO3H) = N[C@H](C(=O)O)[C@H](O)[C@@H](O)c1ccc(O)c(OS(=O)(=O)O)c1; Orn(4R-OH,5R-OH) = O=C([C@H](C[C@@H](O)[C@@H](O)N[*:3])N[*:1])[*:2]; Pro(3S-OH,4S-Me) = C[C@H]1CN[C@H](C(=O)O)[C@H]1O; X1 = CCCCCOc1ccc(-c2cc(-c3ccc(C(=O)*)cc3)no2)cc1; Gln(3R-OH) = NC(=O)C[C@@H](O)[C@H](N)C(=O)O; Hyp = O=C(O)[C@@H]1C[C@@H](O)CN1 Bounds are passed on as bounds.

For `CCCCCOc1ccc(-c2cc(-c3ccc(C(=O)N[C@H]4C[C@@H](O)[C@@H](O)NC(=O)[C@@H]5[C@@H](O)[C@@H](C)CN5C(=O)[C@H]([C@H](O)CC(N)=O)NC(=O)[C@H]([C@H](O)[C@@H](O)c5ccc(O)c(OS(=O)(=O)O)c5)NC(=O)[C@@H]5C[C@@H](O)CN5C(=O)[C@H]([C@@H](C)O)NC4=O)cc3)no2)cc1` [Micafungin] (X1-[Orn(4R-OH,5R-OH)]T[Hyp][hTyr(3S-OH,4S-OH,3'-OSO3H)][Gln(3R-OH)][Pro(3S-OH,4S-Me)]; lactam 1-C), the MIC in assay [1] (read-out: MIC values, strain I.2 (No 2), clade I/India) is 0.125 µg/mL (≈ 0.0984 µM); in assay [1] (read-out: MIC values, strain I.3 (No 3), clade I/India), greater than 1020 µg/mL; in assay [1] (read-out: MIC values, strain I.4 (No 4), clade I/India), 0.125 µg/mL (≈ 0.0984 µM); in assay [1] (read-out: MIC values, strain II.1 (No 5), clade II/Japan) it was 0.125 µg/mL (≈ 0.0984 µM); in assay [1] (read-out: MIC values, strain II.2 (No 1), clade II/India), 0.125 µg/mL (≈ 0.0984 µM); in assay [1] (read-out: MIC values, strain III.7 (No 12), clade III/Switzerland), 0.25 µg/mL (≈ 0.197 µM). The MIC turned out to be 0.25 µg/mL (≈ 0.197 µM) in assay [1] (read-out: MIC values, strain III.8 (No 13), clade III/Israel); 0.25 µg/mL (≈ 0.197 µM) in assay [1] (read-out: MIC values, strain III.9 (No 14), clade III/Israel); 0.125 µg/mL (≈ 0.0984 µM) in assay [1] (read-out: MIC values, strain IV.1 (No 15), clade IV/Colombia); 0.25 µg/mL (≈ 0.197 µM) in assay [1] (read-out: MIC values, strain IV.10 (No 7), clade IV/Israel); 0.25 µg/mL (≈ 0.197 µM) in assay [1] (read-out: MIC values, strain IV.11 (No 8), clade IV/Israel); 0.25 µg/mL (≈ 0.197 µM) in assay [1] (read-out: MIC values, strain IV.12 (No 9), clade IV/Israel). Further, the MIC was 0.25 µg/mL (≈ 0.197 µM) in assay [1] (read-out: MIC values, strain IV.13 (No 10), clade IV/Israel); 0.5 µg/mL (≈ 0.394 µM) in assay [1] (read-out: MIC values, strain IV.14 (No 11), clade IV/Israel); 0.125 µg/mL (≈ 0.0984 µM) in assay [1] (read-out: MIC values, strain IV.2 (No 16), clade IV/Colombia); 0.125 µg/mL (≈ 0.0984 µM) in assay [1] (read-out: MIC values, strain IV.3 (No 17), clade IV/Colombia); 0.125 µg/mL (≈ 0.0984 µM) in assay [1] (read-out: MIC values, strain IV.4 (No 18), clade IV/Colombia); 0.125 µg/mL (≈ 0.0984 µM) in assay [1] (read-out: MIC values, strain IV.5 (No 19), clade IV/Colombia). Besides, the MIC in assay [1] (read-out: MIC values, strain IV.6 (No 20), clade IV/Colombia) was 0.125 µg/mL (≈ 0.0984 µM); in assay [1] (read-out: MIC values, strain IV.7 (No 21), clade IV/Colombia) it was 0.25 µg/mL (≈ 0.197 µM); in assay [1] (read-out: MIC values, strain IV.8 (No 22), clade IV/Colombia), 0.25 µg/mL (≈ 0.197 µM); in assay [1] (read-out: MIC values, strain IV.9 (No 6), clade IV/Israel) it was 0.25 µg/mL (≈ 0.197 µM).

Consider `CC[C@@H]([C@H](C)O)n1ncn(-c2ccc(N3CCN(c4ccc(OC[C@@H]5CO[C@@](Cn6cncn6)(c6ccc(F)cc6F)C5)cc4)CC3)cc2)c1=O` [Posaconazole], for which the MIC worked out at 1 µg/mL (≈ 1.43 µM) in assay [2] (ATCC24905, strain ATCC 24905, ATCC strain); 0.5 µg/mL (≈ 0.713 µM) in assay [2] (strain 2109, clinical strain); 0.5 µg/mL (≈ 0.713 µM) in assay [2] (strain 2707, clinical strain); 1 µg/mL (≈ 1.43 µM) in assay [2] (strain 4280, clinical strain); 0.5 µg/mL (≈ 0.713 µM) in assay [3]; 0.25 µg/mL (≈ 0.357 µM) in assay [4].

As for `C[C@@H](c1ncncc1F)[C@](O)(Cn1cncn1)c1ccc(F)cc1F` [Voriconazole], the MIC in assay [1] (setting [5]) worked out at 1 µg/mL (≈ 2.86 µM); in assay [1] (setting [6]), 2 µg/mL (≈ 5.73 µM); in assay [1] (setting [7]), 1 µg/mL (≈ 2.86 µM); in assay [1] (setting [8]), 0.0625 µg/mL (≈ 0.179 µM); in assay [1] (setting [9]), 1 µg/mL (≈ 2.86 µM); in assay [1] (setting [10]), 2 µg/mL (≈ 5.73 µM). Also, the MIC is 2 µg/mL (≈ 5.73 µM) in assay [1] (setting [11]); 2 µg/mL (≈ 5.73 µM) in assay [1] (setting [12]); 0.0625 µg/mL (≈ 0.179 µM) in assay [1] (setting [13]); 0.5 µg/mL (≈ 1.43 µM) in assay [1] (setting [14]); 0.5 µg/mL (≈ 1.43 µM) in assay [1] (setting [15]); 1 µg/mL (≈ 2.86 µM) in assay [1] (setting [16]). In addition, the MIC is 0.5 µg/mL (≈ 1.43 µM) in assay [1] (setting [17]); 1 µg/mL (≈ 2.86 µM) in assay [1] (setting [18]); 1 µg/mL (≈ 2.86 µM) in assay [1] (setting [19]); 1 µg/mL (≈ 2.86 µM) in assay [1] (setting [20]); 0.5 µg/mL (≈ 1.43 µM) in assay [1] (setting [21]); 0.5 µg/mL (≈ 1.43 µM) in assay [1] (setting [22]). Further, the MIC in assay [1] (setting [23]) came to 0.5 µg/mL (≈ 1.43 µM); in assay [1] (setting [24]) it was 8 µg/mL (≈ 22.9 µM); in assay [1] (setting [25]) it was 8 µg/mL (≈ 22.9 µM); in assay [1] (setting [26]) it was 1 µg/mL (≈ 2.86 µM).

`OC(Cn1cncn1)(Cn1cncn1)c1ccc(F)cc1F` [Fluconazole]: the MIC was found to be 1020 µg/mL (≈ 3340 µM) in assay [1] (setting [5]); 1020 µg/mL (≈ 3340 µM) in assay [1] (setting [6]); 1020 µg/mL (≈ 3340 µM) in assay [1] (setting [7]); 4 µg/mL (≈ 13.1 µM) in assay [1] (setting [8]); 32 µg/mL (≈ 104 µM) in assay [1] (setting [9]); 1020 µg/mL (≈ 3340 µM) in assay [1] (setting [10]). Further, the MIC in assay [1] (setting [11]) came out at 512 µg/mL (≈ 1670 µM); in assay [1] (setting [12]), 1020 µg/mL (≈ 3340 µM); in assay [1] (setting [13]), 4 µg/mL (≈ 13.1 µM); in assay [1] (setting [14]), 32 µg/mL (≈ 104 µM); in assay [1] (setting [15]) it was 32 µg/mL (≈ 104 µM); in assay [1] (setting [16]), 32 µg/mL (≈ 104 µM). Moreover, the MIC in assay [1] (setting [17]) was 32 µg/mL (≈ 104 µM); in assay [1] (setting [18]), 32 µg/mL (≈ 104 µM); in assay [1] (setting [19]), 128 µg/mL (≈ 418 µM); in assay [1] (setting [20]) it was 128 µg/mL (≈ 418 µM); in assay [1] (setting [21]) it was 128 µg/mL (≈ 418 µM); in assay [1] (setting [22]), 128 µg/mL (≈ 418 µM). Further, the MIC is 128 µg/mL (≈ 418 µM) in assay [1] (setting [23]), 1020 µg/mL (≈ 3340 µM) in assay [1] (setting [24]), 1020 µg/mL (≈ 3340 µM) in assay [1] (setting [25]) and 16 µg/mL (≈ 52.2 µM) in assay [1] (setting [26]).
